Consider one compound from US20160032327A1, “PROCESS FOR CULTURING DEINOCOCCUS BACTERIA” (DEINOVE, priority 2012, published 2016).

Like-named read-outs stand apart in the source and are kept apart here. A value given as a limit tells only on which side of the number the result lay.

For experiment [1], the system named is Deinococcus geothermalis M36-7D—21. The method, then:
The growth of Deinococcus geothermalis M36-7D—21 was performed in microplates in CMG medium containing Peptone 2 g/L; Yeast Extract 5 g/L; Glucose 55 mM (10 g/L); MOPS acid 40 mM; NH4Cl 20 mM; NaOH 10 mM; KOH 10 mM; CaCl2.2H2O 0.5 μM; Na2SO4.10H2O 0.276 mM; MgCl2.6H2O 0.528 mM; (NH4)6(Mo7)O24.4H2O 3 nM; H3BO3 0.4 μM; CoCl2.6H2O 30 nM; CuSO4.5H2O 10 nM; MnCl2 0.25 μM; ZnSO4.7H2O 10 nM; D-Biotin 1 μg/L; Niacin (nicotinic acid) 1 μg/L; Pyridoxin (pyridoxal HCl ou vitamine B6) 1 μg/L; Thiamin HCl (vitamine B1); FeCl3 20 μM; Sodium Citrate.2H2O 20 μM; K2HPO4 5,7 mM.
The addition of 100 mM hydrogen peroxide was made at TO (begin of the growth) or at the exponential phase.
The growth was monitored by measuring the OD600 nm.

For the next experiment, the system named is MX6-1E_04. The conditions noted are these: no growth after 24 or 96 h on agar plates at 45° C. The method, then: (§1) Deinococcus geothermalis M36-7D—21 and MX61E—04 were cultivated in 20% starch effluent pH 5 containing 15 mM NH4Cl and 5.30 mM K2HPO4
(§2) 5 ml of the cultures were treated during one hour with different concentration of H2O2 (20, 50,100, 150 and 200 mM) at room temperature or at 45° C.
(§3) The control sample corresponds to untreated sample (0 mM H2O2).
(§4) The control and treated samples were then spread on agar plates containing 10% effluent starch and incubated during 24 and 96 hours at 45° C.
(§5) The inhibitory concentration (IC expressed in mM) is the hydrogen peroxide concentration from which there was no growth after 24 or 96 h.

Experiment [2] deals with M36-7D_21. The conditions noted are these: no growth after 24 or 96 h on agar plates at 45° C. The method, then:
as §1, §2, §3, §4, §5

The subject of another experiment is M36-7D_17. An excerpt: (§6) And the “Inhibitory Concentration of an oxidizer towards a Deinococcus or a related bacterium” (“ICD”) refers to the minimum concentration of said oxidizer in the culture medium that inhibits or reduces the growth of the Deinococcus. The IC may be easily ascertained for each microorganism or each strain thereof, and for each oxidizer, by implementing test cultures. For example, the strain of interest may be cultivated in several parallel cultures, each of said cultures containing an increased concentration of the oxidizer. After 2 or 3 days, the cultures are observed to measure the microbial growth and thereby to determine the IC.
(§7) Preculture was done for 3 days in CMG 1%. After checking the purity of the culture, cell pellet was washed three times in sterile water and then DO was adjusted to 2.
(§8) Hydrogen peroxide stock solution: H2O2 (30%wt solution, SIGMA ref. 216763, stored at 4° C.)
(§9) Preparation of the H2O2 range:
(§10) Dispense 180 μl of media into culture wells (200 μl into blank wells)
(§11) Add 20 μL of washed cell pellet at an optical density (600 nm) of 2 into well to be inoculated.
(§12) Gently add 50 μL of mineral oil on the well surface to limit evaporation.
(§13) Microplate was incubated for 3 days at 30 or 45° C. according to the optimal growth temperature indicated in the first part. Growth was monitored by an absorbance measure.

In the next experiment the test system is Zymomonas mobilis DSM424. The conditions noted are these: Z. mobilis, 30° C., CMG medium.
Description: as §6, §7, §8, §9, §10, §11, §12, §13

The next experiment relates to M36-7Dwt.
Description: as §6, §7, §8, §9, §10, §11, §12, §13

The test system of a further experiment is Escherichia coli K12. As to conditions: E. coli, 30° C., CMG medium.
Description: as §6, §7, §8, §9, §10, §11, §12, §13

In experiment [3] the test system is Saccharomyces cerevisiae 2640. The conditions noted are these: S. cerevisiae, 30° C., CMG medium.
Description: as §6, §7, §8, §9, §10, §11, §12, §13

Experiment [4] concerns Deinococcus radiodurans R1.
Description: as §6, §7, §8, §9, §10, §11, §12, §13

Experiment [5] deals with M36-7D_21.
Description: as §6, §7, §8, §9, §10, §11, §12, §13

[6] abbreviates: one hour treatment at room temperature.

Consider `OO` [hydrogen peroxide], for which the “Effect on growth of M36-7D—21 (OD600 nm)” value in experiment [1] (100 mM hydrogen peroxide added at TO (begin of the growth)) and in [1] (100 mM hydrogen peroxide added at the exponential phase) was “did not affect the growth” in each case. For the same compound, the “IC: concentration of hydrogen peroxide from which there was no growth after 3 days of incubation” value is recorded as 200 mM in the experiment on M36-7D_18 (M36-7D_18, CMG medium, 3 days); 200 mM with M36-7D_17 (M36-7D_17, CMG medium, 3 days); 10 mM with Zymomonas mobilis DSM424; 200 mM in the experiment with M36-7Dwt (M36-7Dwt, 45° C., CMG medium, 3 days); 10 mM with Escherichia coli K12; 20 mM in experiment [3]. In addition, the “IC: concentration of hydrogen peroxide from which there was no growth after 3 days of incubation” value came to 200 mM in [4] (D. radiodurans R1, 30° C., CMG medium, 3 days) and 200 mM in the experiment with M36-7D_21 [5] (M36-7D_21, CMG medium, 3 days). Moreover, the “Concentration of hydrogen peroxide in the presence of which the strain is able to grow” value (with M36-7D_18 (modified D. geothermalis M36-7D (M36-7D_18)); with M36-7D_17 (modified D. geothermalis M36-7D (M36-7D_17)); with M36-7Dwt (D. geothermalis M36-7Dwt); in [4] (D. radiodurans R1); in the experiment with M36-7D_21 [5] (modified D. geothermalis M36-7D (M36-7D_21))) was “up to 190 mM” throughout. Moreover, the “Inhibitory concentration (mM) of hydrogen peroxide” value in the experiment with MX6-1E_04 (one hour treatment at 45° C.) is reported as 50 mM; in the experiment with MX6-1E_04 (setting [6]) it was 100 mM; with M36-7D_21 [2] (one hour treatment at 45° C.) it was 200 mM; with M36-7D_21 [2] (setting [6]), more than 200 mM.
